Where a name gives a salt, the structure may show the parent alone. Read-outs that look alike come from different tables or passages of the source.
Assays:
[1] = target: T1, human Dopamine D2L receptor (Homo sapiens, UniProt P14416); experiment: In vitro binding affinity for human D2L receptor ([3H]spiperone); details: membranes of human D2L receptor-transfected CHO cells, read-out: D2L binding pIC50 (converted)
T1 construct: expressed in transfected cells; host or cells: CHO cells (membranes)
Excerpt: In order to find antipsychotic compounds active against positive and negative symptoms and cognitive impairment, and having an improved safety profile (low EPS incidence and no metabolic disorders), we have screened for compounds selectively interacting with the dopamine D2 receptor and dissociating fast from this receptor, and further having affinity for the dopamine D3 receptor as well as the serotonin 5-HT-6 receptor. Compounds were first screened for their D2 affinity in a binding assay using [^3H]spiperone and human D2L receptor cell membranes.
Pharmacology In Vitro Binding Affinity for Human D2L Receptor
Frozen membranes of human Dopamine D2L receptor-transfected CHO cells were thawed, briefly homogenised using an Ultra-Turrax T25 homogeniser and diluted in Tris-HCl assay buffer containing NaCl, CaCl2, MgCl2, KCl (50, 120, 2, 1, and 5 mM respectively, adjusted to pH 7.7 with HCl) to an appropriate protein concentration optimised for specific and non-specific binding. Radioligand [^3H]Spiperone (NEN, specific activity ˜70 Ci/mmol) was diluted in assay buffer at a concentration of 2 nmol/L. Prepared radioligand (50 μl), along with 50 μl of either the 10% DMSO control, Butaclamol (10^−6 mol/1 final concentration), or compound of interest, was then incubated (30 min, 37° C.) with 400 μl of the prepared membrane solution. Membrane-bound activity was filtered through a Packard Filtermate harvester onto GF/B Unifilterplates and washed with ice-cold Tris-HCl buffer (50 mM; pH 7.7; 6×0.5 ml). Filters were allowed to dry before adding scintillation fluid and counting in a Topcount scintillation counter. Percentage specific bound and competition binding curves were calculated using S-Plus software (Insightful).

[2] = target: T2, human Serotonin 5HT6 receptor (Homo sapiens, UniProt P50406); experiment: In vitro binding affinity for human 5HT6 receptor ([3H]lysergic acid diethylamide); details: [3H]LSD, membranes of human 5HT6 receptor-transfected HEK cells; for IC50: read-out: 5-HT6 binding pIC50 (converted)
T2 construct: expressed in transfected cells; host or cells: HEK cells (membranes)
Description: In Vitro Binding Affinity for Human 5HT6 Receptor
Frozen membranes of human Serotonin 5HT6 receptor-transfected HEK cells were thawed, briefly homogenized using an Ultra-Turrax T25 homogeniser and diluted in 50 mM Tris-HCl assay buffer containing 10 mM MgCl2, 1 mM EDTA and 10 μM Pargyline (adjusted to pH 7.4 with HCl) to an appropriate protein concentration optimized for specific and non-specific binding. Radioligand [^3H]Lysergic acid diethylamide (Perkin Elmer, specific activity ˜80 Ci/mmol) was diluted in assay buffer at a concentration of 20 nM. Radioligand (20 μl), along with 40 μl of either the 10% DMSO control, Methiothepine (10^−5 M final concentration), or compound of interest, was then incubated with 70 μl of the prepared membrane solution and 70 μl of WGA coated PVT beads (0.25 mg/well final concentration). After shaking for 24 hours at RT plates were counted in a Topcount™ scintillation counter. Percentage specific binding and competition binding curves were calculated using S-Plus software (Insightful).

[3] = target: T3, human Dopamine D3 receptor (Homo sapiens, UniProt P35462); experiment: In vitro binding affinity for human D3 receptor ([125I]iodosulpride)
T3 construct: expressed in transfected cells; host or cells: CHO cells (membranes)
Description: In Vitro Binding Affinity for Human D3 Receptor
Frozen membranes of human Dopamine D3 receptor-transfected CHO cells were thawed, briefly homogenized using an Ultra-Turrax T25 homogeniser and diluted in 50 mM Tris-HCl assay buffer containing 120 mM NaCl, 2 mM CaCl2, 1 mM MgCl2, 5 mM KCl and 0.1% BSA (adjusted to pH 7.4 with HCl) to an appropriate protein concentration optimized for specific and non-specific binding. Radioligand [^125I]Iodosulpride (Amersham, specific activity ˜2000 Ci/mmol) was diluted in assay buffer at a concentration of 2 nM. Prepared radioligand (20 μl), along with 40 μl of either the 10% DMSO control, Risperidone (10^−6M final concentration), or compound of interest, was then incubated with 70 μl of the prepared membrane solution and 70 μl of WGA coated PVT beads (0.25 mg/well final concentration). After shaking for 24 hours at RT plates were counted in a Topcount™ scintillation counter. Percentage specific binding and competition binding curves were calculated using S-Plus software (Insightful).

[4] = [125I]iodosulpride, membranes of human D3 receptor-transfected CHO cells, read-out: D3 binding pIC50 (converted)

T1 sequence (P14416 whole entry): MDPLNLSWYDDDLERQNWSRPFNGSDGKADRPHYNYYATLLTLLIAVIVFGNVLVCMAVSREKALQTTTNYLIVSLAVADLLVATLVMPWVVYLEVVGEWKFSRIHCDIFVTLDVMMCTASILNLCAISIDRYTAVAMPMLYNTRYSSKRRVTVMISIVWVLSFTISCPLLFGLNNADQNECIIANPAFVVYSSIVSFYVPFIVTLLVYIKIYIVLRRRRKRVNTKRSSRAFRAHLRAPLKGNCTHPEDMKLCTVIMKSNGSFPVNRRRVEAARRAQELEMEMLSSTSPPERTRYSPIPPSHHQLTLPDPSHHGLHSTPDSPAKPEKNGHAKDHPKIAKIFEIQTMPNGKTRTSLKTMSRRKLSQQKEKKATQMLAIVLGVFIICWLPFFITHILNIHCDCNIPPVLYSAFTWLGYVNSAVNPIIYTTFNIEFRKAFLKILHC
T3 sequence (P35462 whole entry): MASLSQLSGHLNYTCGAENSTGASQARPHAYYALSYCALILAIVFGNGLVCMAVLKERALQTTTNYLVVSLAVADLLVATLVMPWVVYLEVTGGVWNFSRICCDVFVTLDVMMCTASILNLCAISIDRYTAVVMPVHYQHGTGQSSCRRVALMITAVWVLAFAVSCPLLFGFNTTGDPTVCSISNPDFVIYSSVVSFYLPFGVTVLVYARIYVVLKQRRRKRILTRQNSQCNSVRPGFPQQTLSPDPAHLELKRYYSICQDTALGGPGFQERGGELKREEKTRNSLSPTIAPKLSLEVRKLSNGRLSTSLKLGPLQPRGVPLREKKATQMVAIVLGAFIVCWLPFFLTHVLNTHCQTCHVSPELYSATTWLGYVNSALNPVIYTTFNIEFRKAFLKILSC
T2 sequence (P50406 whole entry): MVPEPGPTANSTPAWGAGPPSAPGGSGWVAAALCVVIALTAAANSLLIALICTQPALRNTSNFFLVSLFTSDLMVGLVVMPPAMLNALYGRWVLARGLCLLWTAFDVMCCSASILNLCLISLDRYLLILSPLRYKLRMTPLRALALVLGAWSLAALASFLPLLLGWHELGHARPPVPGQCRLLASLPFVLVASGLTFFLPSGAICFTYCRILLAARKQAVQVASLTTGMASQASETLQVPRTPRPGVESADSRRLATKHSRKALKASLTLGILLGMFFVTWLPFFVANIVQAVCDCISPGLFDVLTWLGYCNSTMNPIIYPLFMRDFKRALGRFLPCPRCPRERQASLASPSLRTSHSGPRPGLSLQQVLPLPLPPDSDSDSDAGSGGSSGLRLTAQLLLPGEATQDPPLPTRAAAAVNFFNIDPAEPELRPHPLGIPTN

Row | 5-HT6 binding pIC50 [2] | SMILES | IC50 [1] [nM] | IC50 [2] [nM] | IC50 [3, 4] [nM] | melting point [°C] | IC50 [3] [nM]
1 | – | FC(F)(F)c1nnc(N2CCNCC2)cc1-c1cccc2ccccc12 [Example E18] | 7760 | 158 | > 10000 | – | –
2 | – | FC(F)(F)c1nnc(N2CCN(C3CC3)CC2)cc1-c1ccccc1 [Example E23] | 1860 | > 10000 | 275 | 152 | –
3 | – | FC(F)(F)c1nnc(N2CCN(Cc3cccnc3)CC2)cc1-c1ccccc1 [Example E37] | 562 | > 10000 | 178 | – | –
4 | – | FC(F)(F)c1nnc(N2CCNCC2)cc1-c1cc(Cl)ccc1Cl [Example E34] | 4680 | 794 | 87.1 | – | –
5 | – | COc1ccccc1-c1cc(N2CCNCC2)nnc1C(F)(F)F [Example E31] | > 10000 | 1120 | 479 | – | –
6 | – | FC(F)(F)c1nnc(N2CCNCC2)cc1-c1ccc(Br)cc1 [Example E14] | 4070 | 4270 | > 10000 | 138.2 | –
7 | – | FC(F)(F)c1nnc(N2CCNCC2)cc1-c1cccc2ccccc12 (as salt: hydrochloric acid salt) [Example E18] | – | – | – | 281.8 | –
8 | >5 | Fc1cc(F)cc(CN2CCN(c3cc(-c4ccccc4)c(C(F)(F)F)nn3)CC2)c1 [Example E3, 6-[4-(3,5-Difluorobenzyl)piperazin-1-yl]-4-phenyl-3-trifluoromethyl-pyridazine] | 617 | – | > 10000 | 138.8 | –
9 | – | Clc1nnc(N2CCNCC2)cc1-c1ccccc1 [Example E20] | 1410 | 4370 | 151 | 173.9 | –
10 | – | FC(F)(F)c1nnc(N2CCNCC2)cc1-c1ccc(Cl)cc1 [Example E12] | 3630 | 1740 | 347 | 198.2 | –
11 | – | Cc1cc(F)ccc1-c1cc(N2CCNCC2)nnc1C(F)(F)F [Example E28] | 372 | 245 | 47.9 | – | –
12 | – | FC(F)(F)c1nnc(N2CCNCC2)cc1-c1cccc(Cl)c1 [Example E16] | 4790 | 245 | 550 | 178.8 | –
13 | – | FC(F)(F)c1nnc(N2CCN(Cc3ccccn3)CC2)cc1-c1ccccc1 [Example E38] | 282 | > 10000 | 87.1 | – | –
14 | – | FC(F)(F)c1nnc(N2CCNCC2)cc1-c1ccc2ccccc2c1 [Example E17] | 7940 | 437 | 398 | 128.1 | –
15 | – | CN1CCN(c2cc(-c3ccccc3)c(C(F)(F)F)nn2)CC1 [Example E22] | 776 | 1260 | 38.9 | – | –
16 | – | CCCN1CCN(c2cc(-c3ccccc3)c(C(F)(F)F)nn2)CC1 [Example E24] | 67.6 | 5370 | > 10000 | 129.8 | –
17 | – | FC(F)(F)c1nnc(N2CCNCC2)cc1-c1cc(Cl)ccc1Cl (as salt: hydrochloric acid salt) [Example E34] | – | – | – | 286.3 | –
18 | – | C[C@@H]1CN(c2cc(-c3ccccc3)c(C(F)(F)F)nn2)C[C@H](C)N1 (as salt: hydrochloric acid salt) [Example E4, cis-6-(3,5-Dimethylpiperazin-1-yl)-4-phenyl-3-trifluoromethyl-pyridazine] | – | – | – | 285.4 | –
19 | – | CC1CN(c2cc(-c3ccccc3)c(C(F)(F)F)nn2)C(C)CN1 (racemic) (as salt: hydrochloric acid salt) [Example E26] | – | – | – | 273 | –

Row | 5-HT6 binding pIC50 [2] | SMILES | IC50 [1] [nM] | IC50 [2] [nM] | IC50 [3, 4] [nM] | melting point [°C] | IC50 [3] [nM]
20 | – | Cc1csc(-c2cc(N3CCNCC3)nnc2C(F)(F)F)c1 [Example E30] | 759 | 562 | 53.7 | 98.1 | –
21 | – | Cc1ccc(-c2cc(N3CCNCC3)nnc2C(F)(F)F)cc1 [Example E11] | 1260 | 741 | 89.1 | 110.6 | –
22 | – | Fc1ccccc1-c1cc(N2CCNCC2)nnc1C(F)(F)F [Example E33] | 1230 | 1290 | – | – | 52.5
23 | – | FC(F)(F)c1nnc(N2CCN3CCCC3C2)cc1-c1ccccc1 (racemic) (as salt: hydrochloric acid salt) [Example E5, 2-(5-Phenyl-6-trifluoromethyl-pyridazin-3-yl)-octahydro-pyrrolo[1,2-a]pyrazine] | – | – | – | 104.2 | –
24 | – | CN(C)c1ccc(-c2cc(N3CCNCC3)nnc2C(F)(F)F)cc1 (as salt: hydrochloric acid salt) [Example E32] | – | – | – | 198.7 | –
25 | – | CC1CN(c2cc(-c3ccccc3)c(C(F)(F)F)nn2)C(C)CN1 (racemic) [Example E26] | 6030 | 2290 | > 10000 | – | –
26 | – | CCN1CCN(c2cc(-c3ccccc3)c(C(F)(F)F)nn2)CC1 (as salt: hydrochloric acid salt) [Example E2, 6-(4-Ethylpiperazin-1-yl)-4-phenyl-3-trifluoromethyl-pyridazine] | – | – | – | 281.9 | –
27 | >5 | Fc1ccc(CN2CCN(c3cc(-c4ccccc4)c(C(F)(F)F)nn3)CC2)cc1F [Example E21] | 2000 | – | 1480 | 185.1 | –
28 | – | CCCCN1CCN(c2cc(-c3ccccc3)c(C(F)(F)F)nn2)CC1 [Example E25] | 69.2 | 2690 | 2.63 | 102.9 | –
29 | – | Oc1cccc(-c2cc(N3CCNCC3)nnc2C(F)(F)F)c1 [Example E13] | 5130 | 3550 | > 10000 | – | –
30 | – | CN(C)c1ccc(-c2cc(N3CCNCC3)nnc2C(F)(F)F)cc1 [Example E32] | > 10000 | 977 | 1290 | – | –
31 | – | FC(F)(F)c1nnc(N2CCNCC2)cc1-c1ccc(Cl)s1 [Example E27, 4-(5-Chloro-thiophen-2-yl)-6-piperazin-1-yl-3-trifluoromethyl-pyridazine] | 1510 | 794 | > 10000 | – | –
32 | – | FC(F)(F)c1nnc(N2CCN(CC3CC3)CC2)cc1-c1ccccc1 [Example E39] | 60.3 | 3890 | > 10000 | – | –
33 | – | CN1CCN(c2cc(-c3ccccc3)c(C(F)(F)F)nn2)CC1 (as salt: hydrochloric acid salt) [Example E22] | – | – | – | 163.3 | –
34 | – | C[C@@H]1CN(c2cc(-c3ccccc3)c(C(F)(F)F)nn2)C[C@H](C)N1 [Example E4, cis-6-(3,5-Dimethylpiperazin-1-yl)-4-phenyl-3-trifluoromethyl-pyridazine] | 3800 | 8510 | > 10000 | – | –
35 | – | Fc1cccc(-c2cc(N3CCNCC3)nnc2C(F)(F)F)c1 [Example E15] | 5750 | 1550 | 631 | 144.7 | –
36 | – | Cc1cscc1-c1cc(N2CCNCC2)nnc1C(F)(F)F [Example E29] | 3550 | 537 | > 10000 | 101 | –
37 | – | COc1ccccc1-c1cc(N2CCNCC2)nnc1C(F)(F)F (as salt: hydrochloric acid salt) [Example E31] | – | – | – | 287.7 | –
38 | – | FC(F)(F)c1nnc(N2CCN(Cc3ccccc3)CC2)cc1-c1ccccc1 [Example E36] | 33.1 | 6610 | > 10000 | – | –

From patent publication US9422296B2, “Fast-dissociating dopamine 2 receptor antagonists” (Janssen Pharmaceutica NV, priority 2007, dated 2016)
